Results reported in US9562053B2, “Benzo-fused heterocyclic derivatives useful as agonists of GPR120” (Janssen Pharmaceutica NV, priority 2013, dated 2017).

What was measured:
[1] = molecular target: T1, short form of the GPR120 receptor (Homo sapiens, UniProt Q5NUL3); experiment: Human GPR120 DiscoveRx PathHunter Beta-Arrestin Assay, Procedure β-arrestin B (5000 cells/well); type: cell-based
T1 construct: host or cells: PathHunter CHO-K1 GPR120S β-Arrestin Cell Line
T1 sequence (Q5NUL3 1-361): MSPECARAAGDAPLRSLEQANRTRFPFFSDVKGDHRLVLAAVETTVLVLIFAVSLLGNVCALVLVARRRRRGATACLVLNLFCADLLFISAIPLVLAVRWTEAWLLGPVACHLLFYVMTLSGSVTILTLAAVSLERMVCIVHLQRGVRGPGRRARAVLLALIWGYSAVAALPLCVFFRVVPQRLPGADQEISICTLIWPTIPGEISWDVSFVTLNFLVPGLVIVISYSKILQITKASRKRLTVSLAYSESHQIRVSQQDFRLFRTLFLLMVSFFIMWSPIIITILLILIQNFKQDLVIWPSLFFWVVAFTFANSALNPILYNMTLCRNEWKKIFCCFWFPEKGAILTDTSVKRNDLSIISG
From the text: (§1) The binding of an agonist (medium/long chain fatty acids or small molecule agonists) to the G-protein-coupled receptor GPR120 activates phospholipase C, leading to release of intracellular Ca^+2 through the generation of inositol 1,4,5-trisphosphate (InsP3 or IP3). GPR120 activation can also trigger intracellular signaling via recruitment of β-Arrestin. In the present method, agonist-induced activation of the human GPR120 receptor is monitored through the use of PathHunter CHO-K1 GPR120 β-Arrestin Cell Line engineered by DiscoveRx, as detailed below. The cell lines are designed to co-express both the ProLink/Enzyme Donor (PK)-tagged GPCR and the Enzyme Activator (EA)-tagged β-Arrestin fusion proteins. Upon GPR120 receptor stimulation/activation, the EA-tagged β-Arrestin portion is translocated to the tagged receptor, where the two enzyme fragments are brought within close proximity. Under these conditions, these fragments can interact and form an active Beta-gal enzyme complex through Enzyme Fragment Complementation (EFC). This active Beta-gal complex can enzymatically hydrolyse the substrate to produce a detectable light signal; therefore, activation as a function of agonist concentration can be expressed as an EC50 value to determine relative compound activities. This in vitro assay therefore serves to assess compound agonist activity of the GPR120.
In Procedure β-arrestin B the cells used were PathHunter CHO-K1 GPR120S β-Arrestin Cell Line, expressing the short form of the GPR120 receptor (Accession #NM_181745), with 5000 cells/well.
(§2) The selected CHO-K1 GPR120 β-Arrestin cells were cultured in Ham's F12 media supplemented with 10% fetal bovine serum (FBS), 1% Glutamine, 1×p/s, 800 μg/ml G418 and 300 μg/ml Hygromycin B (for selection). Cell stocks were maintained and grown in a sub-confluent state using standard cell culture procedures. The day before the experiment, the cells were harvested with non-enzymatic cell dissociation buffer and re-suspended in complete growth media at the desired concentration. A Corning 384-plate was then seeded with the proper number of cells in a volume of 25 μL, per well. The seeded plates were incubated overnight at 37° C.
(§3) On the day of the experiment, the Assay Buffer containing (a) HBSS with Ca^++ and Mg^++, (b) 20 mM HEPES, and (c) 0.1% BSA stabilizer (pH 7.4) was prepared. The growth medium was gently removed from the cell plates and 20 μL of Assay Buffer added to each well. The plate was then incubated at 37° C. for 60 mins. Test compounds were serially diluted in Assay Buffer to desired concentrations (more particularly, to one or more of the following μM concentrations: 25 μM, 12.5 μM, 6.25 μM, 3.125 μM, 1.562 μM, 0.781 μM, 0.391 μM, 0.195 μM, 0.098 μM, 0.049 μM, 0.024 μM, 0.012 μM). Five μl of compound dilution was then added to each well and the plate incubated at 37° C. for 90 mins. The detection reagents were prepared according to the manufacture's instruction. Twelve μL of the detection reagents were added to each well and the plate incubated at room temperature for 60 mins.
(§4) The plates were read on an EnVision instrument, using Protocol name: Luminescence, Plate type: 384 Costar, Measurement height: 3 mm, Measurement time: 1 s, Aperture: 384 Plate aperture. The % activity relative to the positive control was calculated using the following equation:
(§5) The % Activity values were plotted versus the concentration of test compound and fitted to a sigmoidal dose-response curve with a Hill slope=1 (fixed value) using nonlinear regression with GraphPad Prism 5.0 to calculate the EC50 values. The Fitting Equation was: Y=Bottom+(Top−Bottom)/(1+10^((LogEC50−X)*HillSlope)), where X is the log of the concentration and Y is the response.

Human GPR120 short form = molecular target: T2, Human GPR120 short form (Homo sapiens, UniProt Q5NUL3); experiment: Human GPR120 in Calcium Flux Assay, Procedure Calcium B (4200 cells/well); type: cell-based
T2 construct: expressed in transfected cells
T2 sequence (Q5NUL3 1-361): T1 sequence (Q5NUL3 1-361)
From the text: This in vitro assay serves to assess test compound agonist activity against the short splice variant (SVS with Accession number NM_001195755.1 confirmed by sequencing data) of the GPR120 receptor. The Human Short splice variant #2 (NM_001195755.1) is missing an in-frame coding exon compared to variant 1 (the Human Long splice variant NM_181745.3), resulting in a shorter isoform (GPR120-S) lacking a 16 aa protein segment compared to isoform GPR120-L. The assay platform utilizes HEK-293 cells stably transfected to express the Human GPR120 short form. These cells are first loaded with the Ca^+2 sensitive dye, Fluo-4 NW. Upon stimulation, intracellular released Ca^+2 can bind to the dye and alter its fluorescence intensity. This increase in fluorescence signal, and thus the flux in intracellular [Ca^+2], is detected and quantitated by fluorescence imaging using a FLIPR reader. The effect of the agonist is measured as a function of concentration and used to calculate an EC50 based upon a response curve.
In this procedure 4200 cells/well were employed.
A Human GPR120 clone (Genbank accession number NM_001195755.1) was placed into the pcDNA3.1 mammalian expression vector carrying the neomycin resistance gene. A stable mammalian cell was generated by placing the above clone into a HEK293 background. Clonal cells responding to long chain fatty acids had expression levels of GPR120 confirmed by RT-qPCR. Human HEK-GPR120 cells were cultured in Dulbecco's Modified Eagle's Medium (DMEM)/F12 medium supplemented with 10% fetal bovine serum (FBS), 1% L-Glutamine and 1% penicillin/streptomycin and 0.5 mg/ml G-418. Cells were split 2 times a week to keep the cells in the log-phase growth.
In preparation for the assay, HEK cells stably transfected with Human GPR120 (2.5K cells per well in 25 uL growth medium) were seeded into 384-well plates and then incubated overnight (37° C., 5% CO2). The next day, the media was changed to 20 μl assay buffer and the cell starved for 1 h at 37° C. The dye loading solution (2× dye) was prepared using 10 ml assay buffer, 100 μl of 250 mM probenecid, 1 bottle of Component A, and 20 μl of dye in DMSO. Twenty μl of the 2× dye loading buffer was then added to each well. The plates were incubated at 37° C. for 30 min, then at room temperature for an additional 15 minutes, before performing the assay on FLIPR.
Test compounds were prepared in assay buffer (2 μl of test compound+198 μl assay buffer, final DMSO in assay plate is 0.2%) at the desired concentration, more particularly at 100 μM, 50 μM, 25 μM, 12.5 μM, 6.25 μM, 3.125 μM, 1.562 μM, 0.781 μM, 0.391 μM, 0.195 μM, 0.098 μM, 0.049 μM, 0.024 μM and 0.012 μM.
The assay was performed on a FLIPR plate reader using the following parameters. Baseline was read for 10 seconds at 1 sec intervals. The program was set to transfer 10 μL of ligand from compound plate to cell plate after baseline reading. Aspiration was executed at: 10 μl/sec speed, 4.6 μl height; Dispensing was executed at: 30 μl/sec speed, 45 μl height. After compound addition, each well was read for 300 sec, with measurements collected at 1 sec intervals.
The kinetic data from the FLIPR was based upon a 5 minute window for data collection. The fluorescence of each sample well was used for individual calculations of a normalized RFU value, which was defined as maximum response minus the minimum response. The normalized fluorescence reading (RFU) was calculated as follows: RFU=Fmax−Fmin
The data were fitted to a sigmoidal dose-response curve with a variable Hill slope (<2) using nonlinear regression with GraphPad Prism 5.0 to calculate the EC50 values. The Fitting Equation was: Y=Bottom+(Top−Bottom)/(1+10^((LogEC50−X)*HillSlope)), where X is the log of the concentration and Y is the response.

[2] = molecular target: T3, long form of human GPR120 (Homo sapiens, UniProt Q5NUL3); experiment: Human GPR120 DiscoveRx PathHunter Beta-Arrestin Assay, Procedure β-arrestin A (3000 cells per well); type: cell-based; settings: read-out: GPR120 B-arrestin A EC50
T3 construct: host or cells: PathHunter CHO-K1 GPR120 β-Arrestin Cell Line
T3 sequence (Q5NUL3 1-377 isoform Q5NUL3-1): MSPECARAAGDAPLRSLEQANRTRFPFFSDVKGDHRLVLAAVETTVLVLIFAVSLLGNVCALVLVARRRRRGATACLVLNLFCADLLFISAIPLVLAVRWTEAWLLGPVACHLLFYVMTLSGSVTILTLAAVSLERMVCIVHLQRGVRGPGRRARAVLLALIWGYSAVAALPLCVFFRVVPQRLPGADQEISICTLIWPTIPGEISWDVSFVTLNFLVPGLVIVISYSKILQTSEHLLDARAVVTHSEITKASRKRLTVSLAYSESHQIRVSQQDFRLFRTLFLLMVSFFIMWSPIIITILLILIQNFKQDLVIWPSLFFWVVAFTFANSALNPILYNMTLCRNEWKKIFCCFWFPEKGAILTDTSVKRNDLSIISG
From the text: as §1
In Procedure β-arrestin A, the cell used were PathHunter CHO-K1 GPR120 β-Arrestin Cell Line, expressing the long form of human GPR120 (Genbank accession number NM_181745), with 3000 cells per well.
as §2, §3, §4, §5

C57bl/6J Mice = experiment: C57bl6 mouse OGTT; type: in vivo
Description: Male, C57bl/6J Mice were ordered in at 8 weeks of age from Jackson Labs. Individual mice weighed anywhere in the range of 25-30 grams on study day. The mice were fasted, with removal of food occurring at 7 am on the morning of the study. Animals were moved into the room at 10:00 am, to give them time to acclimate. Glucose (insulin syringes) was drawn up either the night before or the morning of the study. Glucose was dosed (IP) at 1.5 g/kg at 7.5 ml/kg (20% glucose straight TEKNOVA, 250 ml sterile bottle w/catalogue number G0525). Test compounds were kept spinning and were only drawn into the syringes prior to study commencement. Animals were bled via tail snip to determine basal glucose levels prior to dosing of treatments. An Ascensia BREEZE Blood Glucose Monitoring System by Bayer (using unique 10-test disks) was used for determining glucose levels. The bleeds started at approximately 12:45 pm and dosing started, at 1-minute intervals, immediately after. All groups were dosed 30 minutes prior to glucose administration at a dose volume of 10 ml/kg (the dose volume was calculated separately for each individual animal). Thirty minutes after the first dose animals were bled again for a second baseline, or T=0, and immediately dosed with glucose via an i.p. injection. The exact dose volume for glucose was also calculated separately for each individual animal. Glucose measurements were taken at −30 min prior to compound dose, at t=0 (immediately prior to glucose dose), and at 15, 30, 45, 60, 90 min post glucose dose.
Glucose values were entered into an Excel sheet and graphed in GraphPad Prism. The following were calculated from Prism: Change from −30 to 0 BSLN Glucose, Raw Glucose AUC −30 to 90 min, Delta Glucose AUC −30 to 90 min, Raw Glucose AUC 0 to 90 min, Delta Glucose AUC 0 to 90 min.
The assay design is the same as that described above for the C57bl6 mouse IPGTT. The difference is that glucose was dosed PO at 3 g/kg, 7.5 ml/kg of 40% glucose.

Structure (SMILES)	EC50 [1]	EC50 (Human GPR120 short form)	EC50 [2]	Dose Responses C57 OGTT (C57bl/6J Mice; 3 mg/kg)	Dose Responses C57 OGTT (C57bl/6J Mice; 10 mg/kg)
Cc1c(CCC(=O)O)ccc(OCc2cc(Cl)cc3sc(CC(C)C)nc23)c1C [Compound 110, 3-(4-{[6-Chloro-2-(2-methylpropyl)-1,3-benzothiazol-4-yl]methoxy}-2,3-dimethylphenyl)propanoic acid]	3310 nM	949 nM	–	–	–
CCCc1cc2cc(F)cc(COc3ccc(CCC(=O)O)c(C)c3C)c2o1 [Compound 13, 3-{4-[(5-Fluoro-2-propyl-1-benzofuran-7-yl)methoxy]-2,3-dimethylphenyl}propanoic acid]	–	–	302 nM	−16%	−16%
Cc1cc2cc(Cl)c(CCCS(C)(=O)=O)c(COc3ccc(CCC(=O)O)c(C)c3C)c2o1 [Compound 108, 3-[4-({5-Chloro-2-methyl-6-[3-(methylsulfonyl)propyl]-1-benzofuran-7-yl}methoxy)-2,3-dimethylphenyl]propanoic acid]	–	2740 nM	–	–	–
Cc1c(CCC(=O)O)ccc(OCc2cc(F)cc3sc(C(C)(C)C)nc23)c1C [Compound 107, 3-{4-[(2-tert-butyl-6-fluoro-1,3-benzothiazol-4-yl)methoxy]-2,3-dimethylphenyl}propanoic acid]	3920 nM	1010 nM	–	–	–

The remaining molecules from weak to strong by EC50 (Human GPR120 short form), led by results:

EC50 [1]	EC50 (Human GPR120 short form)	EC50 [2]	Structure (SMILES)	Dose Responses C57 OGTT (C57bl/6J Mice; 3 mg/kg)	Dose Responses C57 OGTT (C57bl/6J Mice; 10 mg/kg)
882 nM	184 nM	–	Cc1c(CCC(=O)O)ccc(OCc2cc(Cl)cc3sc(C(C)C)nc23)c1C [Compound 106, 3-(4-{[6-chloro-2-(1-methylethyl)-1,3-benzothiazol-4-yl]methoxy}-2,3-dimethylphenyl)propanoic acid]	–	–
299 nM	107 nM	–	Cc1c(CCC(=O)O)ccc(OCc2cc(F)cc3sc(C(C)C)nc23)c1C [Compound 111, 3-(4-{[6-Fluoro-2-(1-methylethyl)-1,3-benzothiazol-4-yl]methoxy}-2,3-dimethylphenyl)propanoic acid]	–	–
191 nM	38 nM	–	CCc1nc2c(COc3ccc(CCC(=O)O)c(C)c3C)cc(Cl)cc2s1 [Compound 109, 3-{4-[(6-Chloro-2-ethyl-1,3-benzothiazol-4-yl)methoxy]-2,3-dimethylphenyl}propanoic acid]	–	–
